Measured values as given in PubChem BioAssay (NCI).
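Grown in 96-well plates, cells were treated for 48 hours with each compound at five concentrations. Insufficient inhibition: endpoint recorded as highest concentration tested. GI50 is the concentration that inhibits growth by half. At the TGI there is no net growth.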

Key:
Assay in all cases: inhibition of tumour cell growth, NCI panel, 48 h
NCI-H522 lung = system: NCI-H522 lung
NCI-H460 lung = system: NCI-H460 lung
SF-539 CNS = system: SF-539 CNS
SK-MEL-5 melanoma = system: SK-MEL-5 melanoma
A549 NSCLC = system: A549 NSCLC
HCT-15 colon = system: HCT-15 colon
ACHN renal = system: ACHN renal
786-0 renal = system: 786-0 renal
U251 CNS = system: U251 CNS
KM12 colon = system: KM12 colon
BT-549 breast = system: BT-549 breast
EKVX NSCLC = system: EKVX NSCLC
SW-620 colon = system: SW-620 colon
SK-MEL-2 melanoma = system: SK-MEL-2 melanoma
HOP-92 NSCLC = system: HOP-92 NSCLC
HCC-2998 colon = system: HCC-2998 colon
HL-60(TB) leukemia = system: HL-60(TB) leukemia
UO-31 renal = system: UO-31 renal
MALME-3M melanoma = system: MALME-3M melanoma
T-47D breast = system: T-47D breast
A498 renal = system: A498 renal
CCRF-CEM leukemia = system: CCRF-CEM leukemia
SNB-19 CNS = system: SNB-19 CNS
K-562 leukemia = system: K-562 leukemia
CAKI-1 renal = system: CAKI-1 renal
OVCAR-5 ovarian = system: OVCAR-5 ovarian
HS 578T breast = system: HS 578T breast
UACC-257 melanoma = system: UACC-257 melanoma
UACC-62 melanoma = system: UACC-62 melanoma
NCI-H226 lung = system: NCI-H226 lung
IGROV1 ovarian = system: IGROV1 ovarian
TK-10 renal = system: TK-10 renal
NCI/ADR-RES ovarian = system: NCI/ADR-RES ovarian
SF-268 CNS = system: SF-268 CNS
HOP-62 NSCLC = system: HOP-62 NSCLC
SK-OV-3 ovarian = system: SK-OV-3 ovarian
SN12C renal = system: SN12C renal
MDA-MB-468 breast = system: MDA-MB-468 breast
OVCAR-8 ovarian = system: OVCAR-8 ovarian
HCT-116 colon = system: HCT-116 colon
OVCAR-4 ovarian = system: OVCAR-4 ovarian
HT29 colon = system: HT29 colon
NCI-H23 lung = system: NCI-H23 lung
COLO 205 colon = system: COLO 205 colon
SNB-75 CNS = system: SNB-75 CNS
OVCAR-3 ovarian = system: OVCAR-3 ovarian
SK-MEL-28 melanoma = system: SK-MEL-28 melanoma
MCF7 breast = system: MCF7 breast
M14 melanoma = system: M14 melanoma
MDA-MB-435 = system: MDA-MB-435
MDA-MB-231 breast = system: MDA-MB-231 breast
MOLT-4 leukemia = system: MOLT-4 leukemia
PC-3 prostate = system: PC-3 prostate
SR leukemia = system: SR leukemia
SF-295 CNS = system: SF-295 CNS
RPMI-8226 leukemia = system: RPMI-8226 leukemia
DU-145 prostate = system: DU-145 prostate
RXF 393 renal = system: RXF 393 renal
LOX IMVI melanoma = system: LOX IMVI melanoma

Question: Which results are given for `CCN1CCN(c2ccc(NC(=O)Nc3ccc(-c4cc(C(=O)NC(C)C)c5ncccc5n4)cc3)cc2C(F)(F)F)CC1`?
Answer: GI50 (NCI-H522 lung): 3520 nM; TGI (NCI-H522 lung): 8430 nM; GI50 (NCI-H460 lung): 617 nM; TGI (NCI-H460 lung): 1180 nM; GI50 (SF-539 CNS): 534 nM; TGI (SF-539 CNS): 1020 nM; GI50 (SK-MEL-5 melanoma): 1410 nM; TGI (SK-MEL-5 melanoma): 5280 nM; GI50 (A549 NSCLC): 1140 nM; TGI (A549 NSCLC): 5770 nM; GI50 (HCT-15 colon): 667 nM; TGI (HCT-15 colon): 1350 nM; GI50 (ACHN renal): 1020 nM; TGI (ACHN renal): 3470 nM; GI50 (786-0 renal): 497 nM; TGI (786-0 renal): 1030 nM; GI50 (U251 CNS): 1240 nM; TGI (U251 CNS): 4820 nM; GI50 (KM12 colon): 1010 nM; TGI (KM12 colon): 2910 nM; GI50 (BT-549 breast): 4830 nM; TGI (BT-549 breast): 9570 nM; GI50 (EKVX NSCLC): 1610 nM; TGI (EKVX NSCLC): 5820 nM; GI50 (SW-620 colon): 637 nM; TGI (SW-620 colon): 1260 nM; GI50 (SK-MEL-2 melanoma): 4820 nM; TGI (SK-MEL-2 melanoma): 9890 nM; GI50 (HOP-92 NSCLC): 3140 nM; TGI (HOP-92 NSCLC): 8290 nM; GI50 (HCC-2998 colon): 1440 nM; TGI (HCC-2998 colon): 5090 nM; GI50 (HL-60(TB) leukemia): 1070 nM; TGI (HL-60(TB) leukemia): 5890 nM; GI50 (UO-31 renal): 2180 nM; TGI (UO-31 renal): 6810 nM; GI50 (MALME-3M melanoma): 575 nM; TGI (MALME-3M melanoma): 1050 nM; GI50 (T-47D breast): 1930 nM; TGI (T-47D breast): 8740 nM; GI50 (A498 renal): 5110 nM; TGI (A498 renal): 9700 nM; GI50 (CCRF-CEM leukemia): 1010 nM; TGI (CCRF-CEM leukemia): 3100 nM; GI50 (SNB-19 CNS): 4240 nM; TGI (SNB-19 CNS): 9120 nM; GI50 (K-562 leukemia): 1000 nM; TGI (K-562 leukemia): 34500 nM; GI50 (CAKI-1 renal): 804 nM; TGI (CAKI-1 renal): 2080 nM; GI50 (OVCAR-5 ovarian): 1600 nM; TGI (OVCAR-5 ovarian): 6090 nM; GI50 (HS 578T breast): 880 nM; TGI (HS 578T breast): 3450 nM; GI50 (UACC-257 melanoma): 3450 nM; TGI (UACC-257 melanoma): 8110 nM; GI50 (UACC-62 melanoma): 3990 nM; TGI (UACC-62 melanoma): 8280 nM; GI50 (NCI-H226 lung): 5020 nM; TGI (NCI-H226 lung): 12500 nM; GI50 (IGROV1 ovarian): 1420 nM; TGI (IGROV1 ovarian): 5110 nM; GI50 (TK-10 renal): 1350 nM; TGI (TK-10 renal): 4870 nM; GI50 (NCI/ADR-RES ovarian): 3660 nM; TGI (NCI/ADR-RES ovarian): 10000 nM; GI50 (SF-268 CNS): 3560 nM; TGI (SF-268 CNS): 10900 nM; GI50 (HOP-62 NSCLC): 3830 nM; TGI (HOP-62 NSCLC): 8890 nM; GI50 (SK-OV-3 ovarian): 5330 nM; TGI (SK-OV-3 ovarian): 10800 nM; GI50 (SN12C renal): 668 nM; TGI (SN12C renal): 1380 nM; GI50 (MDA-MB-468 breast): 766 nM; TGI (MDA-MB-468 breast): 1850 nM; GI50 (OVCAR-8 ovarian): 5690 nM; TGI (OVCAR-8 ovarian): 17500 nM; GI50 (HCT-116 colon): 638 nM; TGI (HCT-116 colon): 1300 nM; GI50 (OVCAR-4 ovarian): 880 nM; TGI (OVCAR-4 ovarian): 2450 nM; GI50 (HT29 colon): 665 nM; TGI (HT29 colon): 1320 nM; GI50 (NCI-H23 lung): 2050 nM; TGI (NCI-H23 lung): 7270 nM; GI50 (COLO 205 colon): 931 nM; TGI (COLO 205 colon): 2710 nM; GI50 (SNB-75 CNS): 979 nM; TGI (SNB-75 CNS): 5140 nM; GI50 (OVCAR-3 ovarian): 636 nM; TGI (OVCAR-3 ovarian): 1360 nM; GI50 (SK-MEL-28 melanoma): 752 nM; TGI (SK-MEL-28 melanoma): 1850 nM; GI50 (MCF7 breast): 631 nM; TGI (MCF7 breast): 1500 nM; GI50 (M14 melanoma): 723 nM; TGI (M14 melanoma): 1900 nM; GI50 (MDA-MB-435): 650 nM; TGI (MDA-MB-435): 1310 nM; GI50 (MDA-MB-231 breast): 610 nM; TGI (MDA-MB-231 breast): 1180 nM; GI50 (MOLT-4 leukemia): 1110 nM; TGI (MOLT-4 leukemia): 30600 nM; GI50 (PC-3 prostate): 760 nM; TGI (PC-3 prostate): 2100 nM; GI50 (SR leukemia): 1050 nM; TGI (SR leukemia): 12100 nM; GI50 (SF-295 CNS): 581 nM; TGI (SF-295 CNS): 1140 nM; GI50 (RPMI-8226 leukemia): 1040 nM; TGI (RPMI-8226 leukemia): 34500 nM; GI50 (DU-145 prostate): 749 nM; TGI (DU-145 prostate): 1580 nM; GI50 (RXF 393 renal): 654 nM; TGI (RXF 393 renal): 1730 nM; GI50 (LOX IMVI melanoma): 557 nM; TGI (LOX IMVI melanoma): 1050 nM
